Measured values taken from patent US8940777B2 (priority 2008, dated 2015).
Read-outs that look alike come from different tables or passages of the source.

Test system: Rhizoctonia solani
Type: in vivo
Details: cucumber (Sagami Hanjiro) seeds coated, 7 days after sowing
Description: Thoroughly mixed were 2.5 parts of clothianidin, 1.25 parts of tolclofos-methyl, 14 parts of polyoxyethylene styryl phenyl ether, 6 parts of calcium dodecylbenzenesulfonate and 76.25 parts of xylene to give a formulation.
The formulation was diluted with acetone, to prepare an acetone mixed solution containing clothianidin and tolclofos-methyl of given concentration.
Five (5) g of cucumber (Sagami Hanjiro) seeds were coated with 1 ml of the mixed solution using a rotation mode seed treating machine (Seed Dresser, manufactured by Hans-Ulrich Hege GmbH), to give treated seeds.
The treated seeds were allowed to stand still overnight, then, sowed on a soil stuffed in a plastic pot, and covered by a soil blended with Rhizoctonia solani cultured in a bran medium. Cultivation thereof was performed at room temperature while irrigating. Seven (7) days after sowing, the number of non-budded seeds was checked, and the damaged ratio was calculated from the formula 1. Based on the damaged ratio, the control value was calculated from the formula 2.
For comparison, an acetone solution containing clothianidin of a given concentration, and an acetone solution containing tolclofos-methyl of a given concentration were prepared, and subjected to the same test. […]

## CN/C(=N\[N+](=O)[O-])NCc1cnc(Cl)s1 [Clothianidin, clothianidin]
Active ingredient amount 200 g/100 kg-seed
  Control value: 4

## COP(=S)(OC)Oc1c(Cl)cc(C)cc1Cl [Tolclofos-methyl, tolclofos-methyl]
Active ingredient amount 10 g/100 kg-seed
  Control value: 57
